ChEMBL document CHEMBL5442219

How the values were obtained:
Settings in all cases: Compound concentration 10 µM
[1] = target: T1, 5-hydroxytryptamine receptor 2C (Homo sapiens) (UniProt P28335)
T1 sequence (whole entry): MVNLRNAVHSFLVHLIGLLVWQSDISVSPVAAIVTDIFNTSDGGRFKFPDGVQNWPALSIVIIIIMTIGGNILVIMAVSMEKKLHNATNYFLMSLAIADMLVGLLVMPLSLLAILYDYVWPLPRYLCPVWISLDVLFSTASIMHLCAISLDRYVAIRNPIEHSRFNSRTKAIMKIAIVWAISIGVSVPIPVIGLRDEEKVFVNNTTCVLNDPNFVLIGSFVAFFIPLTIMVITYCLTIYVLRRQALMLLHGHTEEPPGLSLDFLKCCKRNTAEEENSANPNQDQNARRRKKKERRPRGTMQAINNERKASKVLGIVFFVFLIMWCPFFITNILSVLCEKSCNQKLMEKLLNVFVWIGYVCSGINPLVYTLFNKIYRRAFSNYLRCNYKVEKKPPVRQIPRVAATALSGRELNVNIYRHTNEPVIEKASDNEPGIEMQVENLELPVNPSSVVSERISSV
Description: PDSP Primary Binding target: HTR2C - Compounds are tested at 10 uM concentration, plate are incubated at room temperature in the dark for 90 minutes. Reaction are stopped by vacuum filtration onto 0.3% polyethyleneimine soaked filter mats using Filtermate harvester. Scintilation cocktail is then melted onto microwave-dried filters on a hot plate and the radio activity is counted in Microbia counter.

[2] = target: T2, D(4) dopamine receptor (Homo sapiens) (UniProt P21917)
T2 sequence (whole entry): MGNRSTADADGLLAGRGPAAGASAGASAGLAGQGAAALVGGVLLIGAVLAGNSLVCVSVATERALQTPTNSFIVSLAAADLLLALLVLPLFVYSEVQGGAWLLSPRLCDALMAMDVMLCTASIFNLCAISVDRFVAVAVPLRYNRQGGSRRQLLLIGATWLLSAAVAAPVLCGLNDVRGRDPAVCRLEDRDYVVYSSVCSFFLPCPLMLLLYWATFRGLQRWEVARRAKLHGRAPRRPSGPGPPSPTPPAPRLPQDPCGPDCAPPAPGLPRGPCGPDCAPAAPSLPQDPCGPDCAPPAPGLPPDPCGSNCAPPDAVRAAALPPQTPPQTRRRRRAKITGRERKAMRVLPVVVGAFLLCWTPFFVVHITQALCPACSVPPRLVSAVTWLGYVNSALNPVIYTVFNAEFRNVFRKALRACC
Description: PDSP Primary Binding target: DRD4 - Compounds are tested at 10 uM concentration, plate are incubated at room temperature in the dark for 90 minutes. Reaction are stopped by vacuum filtration onto 0.3% polyethyleneimine soaked filter mats using Filtermate harvester. Scintilation cocktail is then melted onto microwave-dried filters on a hot plate and the radio activity is counted in Microbia counter.

[3] = target: T3, Muscarinic acetylcholine receptor M2 (Homo sapiens) (UniProt P08172)
T3 sequence (whole entry): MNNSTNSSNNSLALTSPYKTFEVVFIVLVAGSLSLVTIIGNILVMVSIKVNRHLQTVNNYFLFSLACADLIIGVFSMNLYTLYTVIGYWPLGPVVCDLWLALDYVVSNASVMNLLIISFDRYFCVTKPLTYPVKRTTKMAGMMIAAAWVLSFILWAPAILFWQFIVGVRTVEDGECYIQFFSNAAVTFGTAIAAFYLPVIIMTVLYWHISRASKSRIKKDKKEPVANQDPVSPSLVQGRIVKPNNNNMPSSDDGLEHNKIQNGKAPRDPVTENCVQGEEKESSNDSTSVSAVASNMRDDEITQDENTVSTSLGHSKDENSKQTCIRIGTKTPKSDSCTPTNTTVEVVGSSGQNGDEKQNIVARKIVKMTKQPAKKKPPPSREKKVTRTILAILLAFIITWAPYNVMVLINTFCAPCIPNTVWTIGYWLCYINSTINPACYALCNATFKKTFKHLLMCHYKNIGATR
Description: PDSP Primary Binding target: CHRM2 - Compounds are tested at 10 uM concentration, plate are incubated at room temperature in the dark for 90 minutes. Reaction are stopped by vacuum filtration onto 0.3% polyethyleneimine soaked filter mats using Filtermate harvester. Scintilation cocktail is then melted onto microwave-dried filters on a hot plate and the radio activity is counted in Microbia counter.

[4] = target: T4, 5-hydroxytryptamine receptor 1A (Homo sapiens) (UniProt P08908)
T4 sequence (whole entry): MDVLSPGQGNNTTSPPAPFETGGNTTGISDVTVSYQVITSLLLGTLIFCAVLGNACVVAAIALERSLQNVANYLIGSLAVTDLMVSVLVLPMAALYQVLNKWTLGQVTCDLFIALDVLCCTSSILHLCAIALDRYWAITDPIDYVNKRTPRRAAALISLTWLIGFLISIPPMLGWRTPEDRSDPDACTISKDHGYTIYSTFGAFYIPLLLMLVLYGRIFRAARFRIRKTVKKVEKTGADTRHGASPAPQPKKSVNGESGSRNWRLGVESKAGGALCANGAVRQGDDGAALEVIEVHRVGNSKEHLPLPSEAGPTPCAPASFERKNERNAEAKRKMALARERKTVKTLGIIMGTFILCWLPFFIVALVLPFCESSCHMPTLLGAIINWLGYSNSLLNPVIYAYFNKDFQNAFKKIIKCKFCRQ
Description: PDSP Primary Binding target: HTR1A - Compounds are tested at 10 uM concentration, plate are incubated at room temperature in the dark for 90 minutes. Reaction are stopped by vacuum filtration onto 0.3% polyethyleneimine soaked filter mats using Filtermate harvester. Scintilation cocktail is then melted onto microwave-dried filters on a hot plate and the radio activity is counted in Microbia counter.

[5] = target: D(3) dopamine receptor (Homo sapiens) (UniProt P35462)
Sequence of D(3) dopamine receptor (Homo sapiens) (P35462 whole entry): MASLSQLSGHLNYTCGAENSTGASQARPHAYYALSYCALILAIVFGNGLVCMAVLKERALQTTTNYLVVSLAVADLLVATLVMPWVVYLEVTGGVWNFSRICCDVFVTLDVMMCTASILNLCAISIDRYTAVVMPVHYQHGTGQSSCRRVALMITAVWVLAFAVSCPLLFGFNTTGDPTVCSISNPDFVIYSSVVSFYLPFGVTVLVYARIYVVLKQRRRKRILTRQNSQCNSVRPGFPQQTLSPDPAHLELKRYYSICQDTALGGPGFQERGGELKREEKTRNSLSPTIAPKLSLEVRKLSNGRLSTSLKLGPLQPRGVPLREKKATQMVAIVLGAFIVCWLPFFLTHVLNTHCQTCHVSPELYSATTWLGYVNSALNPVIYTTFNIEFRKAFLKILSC
Description: PDSP Primary Binding target: DRD3 - Compounds are tested at 10 uM concentration, plate are incubated at room temperature in the dark for 90 minutes. Reaction are stopped by vacuum filtration onto 0.3% polyethyleneimine soaked filter mats using Filtermate harvester. Scintilation cocktail is then melted onto microwave-dried filters on a hot plate and the radio activity is counted in Microbia counter.

[6] = target: 5-hydroxytryptamine receptor 1B (Homo sapiens) (UniProt P28222)
Sequence of 5-hydroxytryptamine receptor 1B (Homo sapiens) (P28222 whole entry): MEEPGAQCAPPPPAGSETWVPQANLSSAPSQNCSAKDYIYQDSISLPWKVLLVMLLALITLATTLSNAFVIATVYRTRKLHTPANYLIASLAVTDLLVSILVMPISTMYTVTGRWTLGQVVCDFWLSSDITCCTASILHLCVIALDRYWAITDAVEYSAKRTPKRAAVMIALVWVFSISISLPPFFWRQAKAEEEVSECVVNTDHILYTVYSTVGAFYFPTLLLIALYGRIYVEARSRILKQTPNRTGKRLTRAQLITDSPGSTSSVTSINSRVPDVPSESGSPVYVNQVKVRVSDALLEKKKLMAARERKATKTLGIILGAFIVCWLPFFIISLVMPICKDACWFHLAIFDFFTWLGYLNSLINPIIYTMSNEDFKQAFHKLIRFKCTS
Description: PDSP Primary Binding target: HTR1B - Compounds are tested at 10 uM concentration, plate are incubated at room temperature in the dark for 90 minutes. Reaction are stopped by vacuum filtration onto 0.3% polyethyleneimine soaked filter mats using Filtermate harvester. Scintilation cocktail is then melted onto microwave-dried filters on a hot plate and the radio activity is counted in Microbia counter.

[7] = target: T5, Muscarinic acetylcholine receptor M4 (Homo sapiens) (UniProt P08173)
T5 sequence (whole entry): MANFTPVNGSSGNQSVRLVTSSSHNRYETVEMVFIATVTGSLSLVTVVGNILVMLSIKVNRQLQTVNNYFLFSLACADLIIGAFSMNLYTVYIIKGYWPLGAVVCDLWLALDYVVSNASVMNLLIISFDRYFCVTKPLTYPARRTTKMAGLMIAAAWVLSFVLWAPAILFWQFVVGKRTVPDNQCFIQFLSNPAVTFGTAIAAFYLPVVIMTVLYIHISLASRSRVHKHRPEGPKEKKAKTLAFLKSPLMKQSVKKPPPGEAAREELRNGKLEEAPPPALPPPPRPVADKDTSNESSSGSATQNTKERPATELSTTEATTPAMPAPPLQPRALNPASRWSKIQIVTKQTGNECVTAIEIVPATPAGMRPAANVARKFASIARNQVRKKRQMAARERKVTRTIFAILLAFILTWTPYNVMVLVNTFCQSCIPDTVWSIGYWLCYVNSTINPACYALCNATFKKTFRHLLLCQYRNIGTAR
Description: PDSP Primary Binding target: CHRM4 - Compounds are tested at 10 uM concentration, plate are incubated at room temperature in the dark for 90 minutes. Reaction are stopped by vacuum filtration onto 0.3% polyethyleneimine soaked filter mats using Filtermate harvester. Scintilation cocktail is then melted onto microwave-dried filters on a hot plate and the radio activity is counted in Microbia counter.

[8] = target: 5-hydroxytryptamine receptor 1E (Homo sapiens) (UniProt P28566)
Sequence of 5-hydroxytryptamine receptor 1E (Homo sapiens) (P28566 whole entry): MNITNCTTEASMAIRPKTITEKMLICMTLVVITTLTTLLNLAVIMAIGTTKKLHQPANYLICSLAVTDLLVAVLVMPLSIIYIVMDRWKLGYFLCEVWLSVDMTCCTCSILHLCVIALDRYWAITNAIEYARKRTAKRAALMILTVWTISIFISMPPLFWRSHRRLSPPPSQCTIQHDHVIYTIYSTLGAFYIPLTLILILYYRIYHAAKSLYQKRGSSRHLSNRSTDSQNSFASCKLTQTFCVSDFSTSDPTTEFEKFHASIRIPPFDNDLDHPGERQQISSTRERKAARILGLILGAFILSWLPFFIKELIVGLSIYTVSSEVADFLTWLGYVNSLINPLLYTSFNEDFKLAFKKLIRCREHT
Description: PDSP Primary Binding target: HTR1E - Compounds are tested at 10 uM concentration, plate are incubated at room temperature in the dark for 90 minutes. Reaction are stopped by vacuum filtration onto 0.3% polyethyleneimine soaked filter mats using Filtermate harvester. Scintilation cocktail is then melted onto microwave-dried filters on a hot plate and the radio activity is counted in Microbia counter.

Row | SMILES | inhibition [1] | inhibition [2] | inhibition [3] | inhibition [4] | inhibition [5] | inhibition [6] | inhibition [7] | inhibition [8]
1 | Cc1csc(NC(=O)c2cc(F)cc(Oc3cncnc3)c2)n1 | 0.59% | 23.6% | -7.43% | 20.4% | 72% | -4.65% | -5.33% | -3.74%
2 | Cc1c(C2=CCN(C(=O)N(C)C(C)C)CC2)nnn1-c1cccnc1F | -0.1% | 26.9% |  | 17% | -1.95% |  | -9.61% | 20.2%
3 | COc1ccnc(N2CCC3(CCCN(Cc4c[nH]c5ccccc45)C3=O)CC2)n1 | 0.97% |  | -2.35% | 72.4% | 28.5% |  | -7.79% | -3.29%
4 | Cc1nnn(-c2ccc(-c3ccc(C4(C(=O)O)CC4)cc3)cc2)c1NC(=O)O[C@H](C)c1ccccc1 |  |  |  | 2.96% | 34.8% | -3.56% |  | 1.32%
5 | COC1CCN(c2cccc(-c3cc(NC(C)=O)nc(-n4nc(C)cc4C)n3)n2)CC1 | 3.48% | -2.89% |  | 23.3% |  |  |  | 15.2%
